Assay results published in article PMC9908614 (Frontiers in Microbiology, 2023).

Legend:
[1] = biological target: T1, EphH (Rv3338) (Mycobacterium tuberculosis, UniProt O53388); format: biochemical
[2] = biological target: T1, EphH (Rv3338); experiment: biochemical; details: read-out: rEphH
[3] = biological target: T2, sEH (human recombinant sEH) (Homo sapiens, UniProt P34913); experiment: fluorescence hydrolysis assay, Michaelis-Menten (Km); format: biochemical; details: cited from earlier work
T2 construct: gene EPHX2
T2 sequence (P34913 1-555): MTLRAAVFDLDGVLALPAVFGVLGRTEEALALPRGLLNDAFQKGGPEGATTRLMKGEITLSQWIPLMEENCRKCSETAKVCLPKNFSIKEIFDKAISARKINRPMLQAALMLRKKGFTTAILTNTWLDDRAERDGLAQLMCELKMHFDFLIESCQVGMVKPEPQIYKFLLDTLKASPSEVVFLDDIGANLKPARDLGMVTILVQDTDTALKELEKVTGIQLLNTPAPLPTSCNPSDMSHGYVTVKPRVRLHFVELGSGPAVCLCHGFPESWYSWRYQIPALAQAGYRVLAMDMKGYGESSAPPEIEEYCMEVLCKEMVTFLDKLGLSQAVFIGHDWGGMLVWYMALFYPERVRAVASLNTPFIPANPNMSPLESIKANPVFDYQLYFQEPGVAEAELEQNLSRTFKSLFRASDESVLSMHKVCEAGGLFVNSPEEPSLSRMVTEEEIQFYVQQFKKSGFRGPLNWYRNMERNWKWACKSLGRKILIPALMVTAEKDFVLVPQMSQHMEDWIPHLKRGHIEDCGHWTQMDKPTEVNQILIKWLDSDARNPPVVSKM

[4] = tested on: COc1ccc2cc(C(C#N)OC(=O)CC3OC3c3ccccc3)ccc2c1; experiment: purified protein

T1 sequence (O53388 whole entry): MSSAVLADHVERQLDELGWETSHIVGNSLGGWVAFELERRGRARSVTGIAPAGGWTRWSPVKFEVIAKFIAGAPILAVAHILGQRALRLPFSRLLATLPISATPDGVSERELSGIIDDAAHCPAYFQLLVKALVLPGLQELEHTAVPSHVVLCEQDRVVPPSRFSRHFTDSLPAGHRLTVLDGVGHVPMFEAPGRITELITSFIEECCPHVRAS

## c1ccc(C2CO2)cc1 (racemic) [styrene oxide]
[1]
  colorimetric Red assay (NaIO4/adrenaline) with purified rEphH: EphH activity was also determined with another EH substrate, styrene oxide

## O=C(O)CCCCCCCCCCCNC(=O)NC12CC3CC(CC(C3)C1)C2 [AUDA, 12-(3-adamantane-1-yl-ureido)-dodecanoic acid]
[2]
  IC50: 9.4 ± 0.5 nM

## COc1ccc2cc(C(C#N)OC(=O)CC3OC3c3ccccc3)ccc2c1 (stereo not drawn) [PHOME, (3-phenyl-oxiranyl)-acetic acid cyano-(6-methoxynaphthalen-2-yl)-methyl ester]
[3]
  Km: 26.2 µM

## EphH (Rv3338) (Mycobacterium tuberculosis H37Rv)
[4]
  Km: 21.03 µM
  Vmax: 1.027 µmol/min
  kcat/Km: 870000 M⁻¹ s⁻¹
